Entries after “also recorded” stand apart in the source; their conditions may differ. One block for each molecule: values may come before it.
How the values were obtained:
[1] = system: LPS-activated splenocytes; assay: Cytokine secretion (ELISA) from LPS-activated splenocytes; type: cell-based, C57BL/6 mice; conditions: for IFN-beta secretion / IL-10 secretion / TNFα secretion / LPS-induced cytokine secretion: 5,000 nM + LPS 1 μg/ml; for IFN-beta secretion / IL-10 secretion / TNFα secretion: overnight
Protocol: FIGS. 4A-4C include vertical bar graphs showing that compounds 5.9 and 7.9 inhibit TNFα but promote IL-10 and IFN-beta secretion from lipopolysaccharides (LPS)-activated splenocytes. Splenocytes were recovered from C57BL/6 WT female mice and incubated (1×10^6 cells in 0.5 mL of culture media) overnight with the individual compounds from cluster 9 (5,000 nM) or vehicle and LPS (1 μg/ml). Next, culture supernatants were collected and TNFα (4A), IL-10 (4B), or IFN-beta (4C) levels were determined by standard ELISA.
STING was previously shown to be essential for LPS-induced IRF3 activation and IFN-β production. Therefore, further examination of whether the putative STING antagonists affect LPS-induced cytokine production was carried out.

STING [2] = biological target: T1, STING (Mus musculus, UniProt Q3TBT3); assay: Cytokine secretion (ELISA) from DMXAA-activated splenocytes; type: cell-based, C57BL/6 mice; design: Splenocytes were recovered from C57BL/6 WT female mice; endogenous in cells; host or cells: primary splenocytes of C57BL/6 mice; conditions: for STING inhibition (ranking): at 5,000 nM, resting splenocytes; for Mode of action on STING (overall): summary over various cell types, DMXAA stimulation
T1 sequence (Q3TBT3 1-378): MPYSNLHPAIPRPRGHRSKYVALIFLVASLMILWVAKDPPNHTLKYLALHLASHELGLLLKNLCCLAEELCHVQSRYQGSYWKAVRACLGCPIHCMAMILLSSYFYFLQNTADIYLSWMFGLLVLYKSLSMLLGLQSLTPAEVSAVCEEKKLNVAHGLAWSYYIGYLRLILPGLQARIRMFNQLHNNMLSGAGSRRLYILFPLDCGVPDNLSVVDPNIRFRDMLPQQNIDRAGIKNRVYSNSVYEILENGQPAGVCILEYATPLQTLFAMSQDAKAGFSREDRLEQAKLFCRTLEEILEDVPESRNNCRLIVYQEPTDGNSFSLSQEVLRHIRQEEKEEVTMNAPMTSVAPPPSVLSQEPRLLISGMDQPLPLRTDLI
Protocol: FIGS. 1A-1B include bar graphs showing that Cluster 1 and 9 inhibit tumor necrosis factor alpha (TNFα) while only cluster 1 promotes IL-10 secretion from resting splenocytes activated by the selective STING agonist DMXAA. Splenocytes were recovered from C57BL/6 WT or STING^−/− female mice and were incubated (1×10^6 cells in 0.5 mL of culture media) overnight with a premade mixture of the individual compounds in each cluster (5-500 nM) or vehicle, and DMXAA (10 μM). Next, culture supernatants were collected and TNFα(1A) or IL-10 (1B) levels were determined by standard enzyme-linked immunosorbent assay ELISA (Biolegend).
(§1) FIGS. 2A-2D include graphs showing that compounds 5.9 and 7.9 inhibit TNFα and IL-10 secretion from DMXAA-activated splenocytes. Splenocytes were recovered from C57BL/6 WT female mice and incubated (1×10^6 cells in 0.5 mL of culture media) overnight with the individual compounds from cluster 9 (50-5,000 nM) or vehicle and DMXAA (5-10 μM; 2A-2B) or at 5,000 nM without DMXAA (2C-2D). Next, culture supernatants were collected and TNFα (2A, and 2C) or IL-10 (2B, and 2D) levels were determined by standard ELISA. In 2A-2B, black horizontal line indicates secretion level from vehicle-treated cells.
FIGS. 3A-3H include graphs and an image showing that compounds 2.1, 4.1, and 6.1 inhibit TNFα but promote IL-10 and IFN-beta secretion from DMXAA-activated splenocytes. Splenocytes were recovered from C57BL/6 WT female mice and incubated (1×10^6 cells in 0.5 mL of culture media) overnight with the individual compounds from cluster 1 (50-5,000 nM) or vehicle and DMXAA (10 μM; 3A, 3C, and 3E) or at 5,000 nM without DMXAA (3B, 3D, and 3F). Next, culture supernatants were collected and TNFα (3A-3B), IL-10 (3C-3D), or IFN-beta (3E-3F) levels were determined by standard ELISA. In 3A, 3C, and 3E, black horizontal line indicates secretion level from vehicle-treated cells. (3G-3H) Biased STING agonists (BiSTs) enhance DMXAA-induced STING signaling. Splenocytes were treated with 25 μg/ml DMXAA and 50 nM of compound 2.1 for 1-4 hr (3G). Then, the cells were analyzed by immunoblotting for phosphorylated STING, TBK-1, IRF3, and NF-kB, or their unphosphorylated controls, or actin as a loading control. Densitometry analysis for phosphorylated STING (p-STING) and STING proteins (3H) is also shown. Results are representative (3G) or mean±SEM (3H) from 3 repeats. One-way ANOVA, and Tukey HSD test *P<0.05.
(§2) Splenocytes were isolated from the spleens of unchallenged C57BL/6 WT or STING-KO mice by meshing against a grid. Peritoneal macrophages were isolated from mice undergoing peritonitis for 66 hr by washing with 5 ml PBS. The cellular exudate was stained with phycoerythrin (PE)-conjugated anti-F4/80 antibodies (bioLegend, CA, USA) and macrophages were isolated using magnetic beads (STEMCELL Technologies Inc, Vancouver, Canada). Isolated splenocytes or macrophages (0.5-1×10^6 cells per well) were incubated with 50-5,000 nM of individual substances or pooled clusters thereof. Then, the cells were treated with vehicle or 5-10 μM DMXAA (Cayman Chemical, MI, USA) to activate STING. After 24 hr, culture supernatants were collected and evaluated for levels of: TNFα, IFN-β and/or IL-10 using, standard ELISA (BioLegend, CA, USA).
To test which cluster(s) included compounds that modulate STING-mediated cytokine production, wild-type (WT) or STING knockout (−/−) splenocytes were incubated with the selective murine STING agonist DMXAA alone or with 5-500 nM of the pooled individual compounds in each cluster as indicated.
Next, the individual compounds in clusters 1 and 9 were tested at 50-5,000 nM. The first experiment was performed in resting splenocytes as detailed above.

STING [3] = biological target: T1, STING; assay: Cytokine secretion (ELISA) from splenocytes without DMXAA; type: cell-based, C57BL/6 mice; design: Splenocytes were recovered from C57BL/6 WT female mice; endogenous in cells; host or cells: primary splenocytes of C57BL/6 mice; conditions: 5,000 nM
Protocol: as §1
FIGS. 3A-3H include graphs and an image showing that compounds 2.1, 4.1, and 6.1 inhibit TNFα but promote IL-10 and IFN-beta secretion from DMXAA-activated splenocytes. […] Next, culture supernatants were collected and TNFα (3A-3B), IL-10 (3C-3D), or IFN-beta (3E-3F) levels were determined by standard ELISA. […] Then, the cells were analyzed by immunoblotting for phosphorylated STING, TBK-1, IRF3, and NF-kB, or their unphosphorylated controls, or actin as a loading control. […]
Splenocytes were isolated from the spleens of unchallenged C57BL/6 WT or STING-KO mice by meshing against a grid. […] After 24 hr, culture supernatants were collected and evaluated for levels of: TNFα, IFN-β and/or IL-10 using, standard ELISA (BioLegend, CA, USA). […]

STING [4] = biological target: T1, STING; assay: Cytokine secretion (ELISA) from DMXAA-activated resolution phase macrophages (zymosan A peritonitis); type: cell-based, mice; design: Mice were injected with zymosan A (1 mg/mouse), and peritoneal cells thereof were recovered after 66 hrs; endogenous in cells; host or cells: F4/80+ peritoneal exudate macrophages from mice with zymosan A peritonitis; conditions: for TNFα induced by DMXAA: at 5000 nM; for TNFα secretion / IL-10 secretion: individual compounds 50-5,000 nM + DMXAA 5-10 μM; for Mode of action in resolution phase macrophages: summary heading
Protocol: Mice were injected with zymosan A (1 mg/mouse), and peritoneal cells thereof were recovered after 66 hrs. Exudate macrophages were isolated and incubated (1×10^6 cells in 0.5 mL of culture media) overnight with a premade mixture of the individual compounds in clusters 1 and 9 (5,000 nM; 5A and 5C), or the individual compounds (500-5,000 nM), or vehicle and DMXAA (5-10 μM). Next, culture supernatants were collected and TNFα (5A-5B) or IL-10 (5C-5D) levels were determined by standard ELISA (Biolegend).
as §2
To use a more physiological setting, macrophages were isolated from zymosan A-induced peritonitis and treated with the compounds alone (5,000 nM) or compounds (50-5,000 nM) with DMXAA, or DMXAA alone.

[5] = individual compounds 50-5,000 nM + DMXAA 5-10 μM, overnight

Structure (SMILES): Cc1ccc2c(-c3cc4c(n(CC5CC5)c3=O)CCN(C(=O)C3=NN(C)C(=O)CC3)C4)cccc2n1 [Compound 5.9, 1-(cyclopropylmethyl)-6-[(1-methyl-6-oxo-1,4,5,6-tetrahydro-3-pyridazinyl)carbonyl]-3-(2-methyl-5-quinolinyl)-5,6,7,8-tetrahydro-1,6-naphthyridin-2(1H)-one]
IFN-beta secretion [1]: enhances; also recorded: significant upregulation; also recorded: promote
IL-10 secretion [1]: enhances; also recorded: significant upregulation; also recorded: promote
TNFα secretion [1]: not and reducing and inhibiting and inhibit
Mode of action in LPS-stimulated splenocytes ([1]; summary statement): biased agonist
STING inhibition (ranking) (STING [2]): Best STING Inhibitors
IL-10 secretion (STING [2]; [5]): inhibit
TNFα secretion (STING [2]; [5]): doing so at lower concentrations; also recorded: best inhibitor; also recorded: inhibit
Mode of action on STING (overall) (STING [2]): very efficient STING inhibitors
TNFα secretion (STING [3]; absence of DMXAA stimulation): inhibited
IL-10 induced by DMXAA (STING [4]; at 5,000 nM): enhanced
TNFα induced by DMXAA (STING [4]): enhanced

Structure (SMILES): CCOC(=O)N1CCC(NCc2cc3ccc(Cl)cc3n(CCOc3ccccc3)c2=O)CC1 [Compound 6.9, ethyl 4-({[7-chloro-2-oxo-1-(2-phenoxyethyl)-1,2-dihydro-3-quinolinyl]methyl}amino)-1-piperidinecarboxylate]
LPS-induced cytokine secretion [1]: much milder effects

Structure (SMILES): c1ccc(-n2cccc2CN(Cc2cccnc2)Cc2ccc3c(c2)OCO3)nc1 [Compound 4.1, (1,3-benzodioxol-5-ylmethyl)(pyridin-3-ylmethyl)[(1-pyridin-2-yl-1H-pyrrol-2-yl)methyl]amine]
IFN-beta secretion (STING [2]; individual compounds 50-5,000 nM + DMXAA 10 μM, overnight): promote
IL-10 secretion (STING [2]; [5]): induced IL-10 at all concentrations; also recorded: promote
TNFα secretion (STING [2]; [5]): inhibit
IL-10 secretion (STING [2]; individual compounds at 5,000 nM + DMXAA): induces
Mode of action on STING (overall) (STING [2]): biased agonists; also recorded: most efficient biased agonist
IL-10 secretion (STING [3]; without DMXAA): only compound that induced IL-10; also recorded: induces
IL-10 induced by DMXAA (STING [4]; at 500 nM): enhanced
IL-10 induced by DMXAA (STING [4]; at 5,000 nM): not
IL-10 secretion (STING [4]): selective inducer
Mode of action in resolution phase macrophages (STING [4]): Biased Antagonist for TNFα

Structure (SMILES): O=C(CCc1c[nH]c2ccccc12)N1CCOc2ccc(CN3CCN(c4ccccn4)CC3)cc2C1 [Compound 7.9, 4-[3-(1H-indol-3-yl)propanoyl]-7-{[4-(2-pyridinyl)-1-piperazinyl]methyl}-2,3,4,5-tetrahydro-1,4-benzoxazepine]
LPS-induced cytokine secretion [1]: much milder effects
IFN-beta secretion [1]: promote
IL-10 secretion [1]: promote
TNFα secretion [1]: inhibit
IL-10 secretion (STING [2]; [5]): inhibit
TNFα secretion (STING [2]; [5]): inhibit
Mode of action on STING (overall) (STING [2]): very efficient STING inhibitors
IL-10 secretion (STING [4]): best inhibitor; also recorded: inhibits
TNFα secretion (STING [4]): best inhibitor; also recorded: inhibits
Mode of action in resolution phase macrophages (STING [4]): Very Efficient STING Inhibitor

Now from value to molecule, other results behind:

STING inhibition (ranking) (STING [2]): Best STING Inhibitors
Mode of action on STING (overall) (STING [2]): biased agonists
IL-10 induced by DMXAA (STING [4]; at 5,000 nM): enhanced
TNFα induced by DMXAA (STING [4]): enhanced
Structure (SMILES): Cc1ccc(C(=O)Nc2cnn(-c3ccc(C(=O)N4CCC(c5ccc(F)cc5)C4)cc3)c2)c(C)c1 (stereo not shown) [Compound 6.1, N-[1-(4-{[3-(4-fluorophenyl)-1-pyrrolidinyl]carbonyl}phenyl)-1H-pyrazol-4-yl]-2,4-dimethylbenzamide]
TNFα secretion (STING [2]; [5]): doing so at lower concentrations; also recorded: inhibit

TNFα secretion (STING [4]): enhanced TNFα only
Structure (SMILES): COCC(=O)N(C)C(Cc1ccc(F)cc1)C1CCN(C(=O)c2ccc(-c3ccccc3)cc2)CC1 (stereo not shown) [Compound 3.1, N-[1-[1-(4-biphenylylcarbonyl)-4-piperidinyl]-2-(4-fluorophenyl)ethyl]-2-methoxy-N-methylacetamide]

STING inhibition (ranking) (STING [2]): Best STING Inhibitors
TNFα secretion (STING [2]; [5]): doing so at lower concentrations
Structure (SMILES): COc1ccccc1CCN1CCCC(CN(C)C(=O)Cc2cn(C)c3ccccc23)C1 (stereo not shown) [Compound 4.9]
